ChEMBL document CHEMBL1154132, “Mycophenolic derivatives from Eupenicillium parvum” (J Nat Prod, 2008)
Activity calls are given as the source filed them. The calls are words filed in the database; no cut-off is given here.

Tests used:
Assay type in all cases: functional, organism-based
Aspergillus fumigatus = assay: Antimicrobial activity against Aspergillus fumigatus […] by standard disk assay
Staphylococcus aureus = assay: Antimicrobial activity against methicillin-resistant Staphylococcus aureus ATCC 43300 by standard disk assay
[1] = system: Mycobacterium intracellulare; assay: Antimicrobial activity against Mycobacterium intracellular […] by alamar blue assay
Pseudomonas aeruginosa = assay: Antimicrobial activity against Pseudomonas aeruginosa ATCC 27853 by standard disk assay
Escherichia coli = assay: Antimicrobial activity against Escherichia coli ATCC 35218 by standard disk assay
Cryptococcus neoformans = assay: Antimicrobial activity against Cryptococcus neoformans ATCC 90113 by standard disk assay
Candida albicans = assay: Antimicrobial activity against Candida albicans ATCC 90028 by standard disk assay

Structure (SMILES) | Activity (Aspergillus fumigatus) | Activity (Staphylococcus aureus) | Activity [1] | Activity (Pseudomonas aeruginosa) | Activity (Escherichia coli) | IC50 (Cryptococcus neoformans) [µM] | IC50 (Candida albicans) [µM]
COC(=O)C[C@H](O)/C(C)=C/Cc1c(OC)c(C)c2c(c1OC)C(=O)OC2 | inactive | inactive | inactive | inactive | inactive |  | 
COc1c(C)c2c(c(O)c1CC[C@H](C)C(=O)O)C(=O)OC2 | inactive |  | inactive | inactive | inactive |  | 
Cc1c(O)c(CC[C@H](C)C(=O)O)c(O)c2c1COC2=O | inactive | inactive | inactive | inactive | inactive |  | 
Cc1c(O)cc(O)c2c1COC2=O | inactive | inactive | inactive | inactive | inactive |  | 
COc1c(C)c2c(c(O)c1C/C=C(\C)CCC(=O)O)C(=O)OC2 [MYCOPHENOLIC ACID] | inactive | inactive | inactive | inactive | inactive | 15 | 8
COc1c(C)c2c(c(O)c1C/C=C(\C)[C@@H](O)CC(=O)O)C(=O)OC2 | inactive | inactive | inactive | inactive | inactive |  | 
